Measurements published in patent US20240174690A1, “ANNULATED 2-AMINO-3-CYANO THIOPHENES AND DERIVATIVES FOR THE TREATMENT OF CANCER” (BOEHRINGER INGELHEIM INTERNATIONAL GMBH, priority 2021, published 2024).
Values after ≈ are worked out from the molar mass of the structure shown. Like-named read-outs stand apart in the source and are kept apart here.

Columns and labels:
[1] = Solubility measurement (DMSO solution method), McIlvaine buffer pH 4.5 or 6.8; assay type: physicochemical; details: aqueous buffer, kinetic from dmso stock, DMSO stock diluted to 250 μM, 24 h shaking at ambient temperature
Protocol: The DMSO solution is diluted with an aqueous medium (Mcllvaine buffer with pH=4.5 or 6.8) to a final concentration of 250 μM. After 24 h of shaking at ambient temperature a potentially formed precipitate is removed by filtration. The concentration of the test compound in the filtrate is determined by LC-UV methods by calibrating the signal to the signal of a reference solution with complete dissolution of the test compound in acetonitrile/water (1:1) with known concentration.

NCI-H358 cells = experiment: NCI-H358 CTG proliferation assay (120 h) (NSCLC, G12C); assay type: cell-based, human; details: Homo sapiens
Protocol: NCI-H358 CTG Proliferation Assay (120 h) (NSCLC, G12C)
NCI-H358 cells (ATCC No. CRL-5807) are dispensed into white bottom opaque 96 well plates (Perkin Elmer cat no. 5680) at a density of 2000 cells per well in 100 μL RPMI-1640 ATCC-Formulation (Gibco #A10491)+10% FCS (fetal calf serum) (assay 1) or into black 384-well plates, flat and clear bottom (Greiner, PNr. 781091) at a density of 200 cells per well in 60 μl RPMI-1640 ATCC-Formulation (Gibco #A10491)+10% FCS (fetal calf serum) (assay 2). […] Compounds (10 mM stock in DMSO) are added at logarithmic dose series using the HP Digital Dispenser D300 (Tecan) (assay 1) or the ECHO acoustic liquid handler system (Beckman Coulter) (assay 2), normalizing for added DMSO and including DMSO controls. For the TO time point measurement, untreated cells are analyzed at the time of compound addition. Plates are incubated for 120 h, and cell viability is measured using CellTiter-Glo luminescent cell viability reagent (Promega product code G7570). Viability (stated as percent of control) is defined as relative luminescence units RLU of each well divided by the RLU of cells in DMSO controls. IC50 values are determined from viability measurements by non-linear regression using a four parameter model.

CYP3A4 = CYP3A4 (Homo sapiens (Human), UniProt P08684); experiment: Mechanism based inhibition of CYP3A4 assay (MBI 3A4); assay type: in vitro ADME; details: hydroxy-midazolam formation after 30 min vs 0 min preincubation, 25 uM, human liver microsomes
CYP3A4, sequence (P08684 whole entry): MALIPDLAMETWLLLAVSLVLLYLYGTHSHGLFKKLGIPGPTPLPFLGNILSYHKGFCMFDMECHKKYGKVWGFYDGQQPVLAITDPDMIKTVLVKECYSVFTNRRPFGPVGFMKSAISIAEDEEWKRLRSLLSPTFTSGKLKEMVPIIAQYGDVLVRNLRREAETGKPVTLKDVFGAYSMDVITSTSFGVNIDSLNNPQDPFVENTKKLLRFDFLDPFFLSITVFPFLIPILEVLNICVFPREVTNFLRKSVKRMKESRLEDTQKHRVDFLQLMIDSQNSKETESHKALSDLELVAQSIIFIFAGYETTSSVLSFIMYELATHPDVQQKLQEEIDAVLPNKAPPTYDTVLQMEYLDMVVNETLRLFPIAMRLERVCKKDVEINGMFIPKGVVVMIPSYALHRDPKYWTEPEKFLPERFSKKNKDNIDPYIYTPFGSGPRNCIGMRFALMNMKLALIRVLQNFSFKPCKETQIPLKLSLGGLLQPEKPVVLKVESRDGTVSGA
Protocol: After preincubation, the incubate is diluted 1:10 and the substrate midazolam is added for the main incubation (15 min). The main incubation is quenched with acetonitrile and the formation of hydroxy-midazolam is quantified via LC/MS-MS. The formation of hydroxy-midazolam from the 30 min preincubation relative to the formation from the 0 min preincubation is used as a readout. Values of less than 100% mean that the substrate midazolam is metabolized to a lower extent upon 30 min preincubation compared to 0 min preincubation. In general low effects upon 30 min preincubation are desired (corresponding to values close to 100%/not different to the values determined with water control).

NCI-H2122 cells = experiment: NCI-H2122 CTG proliferation assay (120 h) (NSCLC, G12C); assay type: cell-based; details: Homo sapiens
Protocol: NCI-H2122 CTG Proliferation Assay (120 h) (NSCLC, G12C)
The CTG assay is designed to measure quantitatively the proliferation of NCI-H2122 cells (ATCC CRL-5985), using the CellTiter Glow Assay Kit (Promega G7571). Cells are grown in RPMI medium (ATCC) supplemented with Fetal Calf Serum (Life Technologies, Gibco BRL, Cat. No. 10270-106). On “day 0” 200 NCI-H2122 cells are seeded in 60 μL RPMI ATCC+10% FCS+Penstrep in a black 384-well plate, flat and clear bottom (Greiner, PNr. 781091). Cells are then incubated in the plates at 37° C. in a CO2 incubator overnight. On day 1, compounds (10 mM stock in DMSO) are added with the ECHO acoustic liquid handler system (Beckman Coulter), including DMSO controls. Plates are incubated for 120 h, and cell viability is measured using CellTiter-Glo luminescent cell viability reagent (Promega product code G7570). Viability (stated as percent of control) is defined as relative luminescence units RLU of each well divided by the RLU of cells in DMSO controls. IC50 values are determined from viability measurements by non-linear regression using a four parameter model.

SAS cells = experiment: SAS CTG proliferation assay (120 h) (HNSCC, wt amplified); assay type: cell-based
Protocol: SAS CTG Proliferation Assay (120 h) (HNSCC, Wt Amplified)
(§1) SAS cells (JCRB0260) are dispensed into 384-well plates, flat and clear bottom (Greiner, PNr. 781091) at a density of 300 cells per well in 60 μL DMEM:F12 (Gibco 31330-038)+10% Fetal Calf Serum (HyClone, PNr.: SH30084.03) and incubated at 37° C. in a CO2 incubator overnight. The next day, compounds (10 mM stock in DMSO) are added with the ECHO acoustic liquid handler system (Beckman Coulter), including DMSO controls. Plates are incubated for 120 h, and cell viability is measured using CellTiter-Glo luminescent cell viability reagent (Promega product code G7570). Viability (stated as percent of control) is defined as relative luminescence units RLU of each well divided by the RLU of cells in DMSO controls. IC50 values are determined from viability measurements by non-linear regression using a four-parameter model.

SK-CO-1 cells = experiment: SK-CO-1 CTG proliferation assay (120 h) (CRC, G12V); assay type: cell-based; details: Homo sapiens; SK-CO-1 cells (CRC, G12V), CTG 120 h
Protocol: SK-CO-1 CTG Proliferation Assay (120 h) (CRC, G12V)
as §1, with “SK-CO-1 cells (ATCC” for “SAS cells (JCRB0260)”, “SK-CO-1 cells (ATCC HTB-39) are dispensed” for “SAS cells (JCRB0260) are dispensed”, “density of 500 cells per” for “density of 300 cells per”, “60 μL EMEM (Sigma M5650)+10% Fetal Calf” for “60 μL DMEM:F12 (Gibco 31330-038)+10% Fetal Calf”

[2] = McIlvaine buffer pH 4.5, read-out: solubility pH 4.5
[3] = McIlvaine buffer pH 6.8, read-out: solubility pH 6.8
[4] = assay 2, CTG, read-out: H358 (assay 2) IC50

Which results are given for `C[C@H](Oc1cc(N2CCN(C)CC2)nc(-c2noc3c2CCC[C@@]32CCCc3sc(N)c(C#N)c32)n1)[C@@H]1CCCN1C` [II-55]?
solubility at 24 h [1, 2]: > 172 µg/mL; solubility at 24 h [1, 3]: > 161 µg/mL; IC50 (NCI-H358 cells; [4]): 588 nM; MBI 3A4 (CYP3A4): 88%; IC50 (NCI-H2122 cells): 4910 nM; IC50 (SAS cells): 968 nM; IC50 (SK-CO-1 cells): 754 nM

For `C[C@H](Oc1cc(N2C[C@H](C)N[C@@H](C)C2)nc(-c2noc3c2CCC[C@@]32CCCc3sc(N)c(C#N)c32)n1)[C@@H]1CCCN1C` [II-56], which solubility at 24 h [1, 2] is on record?
The solubility at 24 h was over 144 µg/mL.

And the solubility at 24 h [1, 3]?
Its solubility at 24 h is over 146 µg/mL.

What about the IC50 (NCI-H358 cells; assay 1, CTG, read-out: H358 (assay 1) IC50) of the same compound?
Its IC50 is 587 nM.

And the IC50 (NCI-H358 cells; [4])?
Its IC50 is 173 nM.

What about the “MBI 3A4” value (CYP3A4) of the same compound?
Its value is 73%.

What about the IC50 (NCI-H2122 cells) of the same compound?
Its IC50 is 3190 nM.

What about the IC50 (SAS cells) of the same compound?
Its IC50 is 1430 nM.

What about the IC50 (SK-CO-1 cells) of the same compound?
The IC50 was 554 nM.

What does the source list for `CO[C@@H]1C[C@@H]([C@H](C)Oc2cc(-c3cnn(C)n3)nc(-c3noc4c3CCC[C@@]43CCCc4sc(N)c(C#N)c43)n2)N(C)C1` [II-62]?
solubility at 24 h [1, 2]: > 129 µg/mL; solubility at 24 h [1, 3]: < 1 µg/mL; MBI 3A4 (CYP3A4): 53%; IC50 (NCI-H2122 cells): 4790 nM; IC50 (SAS cells): 50 nM; IC50 (SK-CO-1 cells): 280 nM

Which solubility at 24 h [1, 2] does the source give for `C[C@H](Oc1cc(N2CCCC2=O)nc(-c2noc3c2CCC[C@@]32CCCc3sc(N)c(C#N)c32)n1)[C@@H]1CCCN1C` [II-73] here?
Its solubility at 24 h is over 124 µg/mL.

And the solubility at 24 h [1, 3]?
Its solubility at 24 h is 88 µg/mL (≈ 153 µM).

What about the “MBI 3A4” value (CYP3A4) of the same compound?
Its value is 52%.

What about the IC50 (NCI-H2122 cells) of the same compound?
The IC50 was 1610 nM.

And the IC50 (SAS cells)?
Its IC50 is 33 nM.

What about the IC50 (SK-CO-1 cells) of the same compound?
The IC50 was 43 nM.

For `C[C@H](Oc1cc(-c2cn[nH]c2)nc(-c2noc3c2CCC[C@@]32CCCc3sc(N)c(C#N)c32)n1)[C@@H]1CCCN1C` [II-87], which IC50 (NCI-H358 cells; [4]) is on record?
The IC50 was 106 nM.

What about the “MBI 3A4” value (CYP3A4) of the same compound?
The value was 64%.

And the IC50 (NCI-H2122 cells)?
Its IC50 is 1990 nM.

What about the IC50 (SAS cells) of the same compound?
The IC50 was 107 nM.

And the IC50 (SK-CO-1 cells)?
The IC50 was 71 nM.

Which results are given for `C[C@H](Oc1cc([C@H]2CCOC2)nc(-c2noc3c2CCC[C@@]32CCCc3sc(N)c(C#N)c32)n1)[C@@H]1CCCN1C` [II-88]?
IC50 (NCI-H358 cells; [4]): 126 nM; MBI 3A4 (CYP3A4): 77%; IC50 (NCI-H2122 cells): 434 nM; IC50 (SAS cells): 2220 nM; IC50 (SK-CO-1 cells): 47 nM

With `Cc1nc(-c2cc(O[C@@H](C)[C@@H]3CCCN3C)nc(-c3noc4c3CCC[C@@]43CCCc4sc(N)c(C#N)c43)n2)cs1` [II-103] as the compound, how does the solubility at 24 h [1, 2] read?
Its solubility at 24 h is 53 µg/mL (≈ 90.2 µM).

And the solubility at 24 h [1, 3]?
The solubility at 24 h was under 1 µg/mL.

And the “MBI 3A4” value (CYP3A4)?
The value was 53%.

With `C[C@H](Oc1cc(-c2ccn3ncnc3c2)nc(-c2noc3c2CCC[C@@]32CCCc3sc(N)c(C#N)c32)n1)[C@@H]1CCCN1C` [II-104] as the compound, how does the solubility at 24 h [1, 2] read?
The solubility at 24 h was 3 µg/mL (≈ 4.94 µM).

And the solubility at 24 h [1, 3]?
Its solubility at 24 h is under 1 µg/mL.

What about the IC50 (NCI-H358 cells; [4]) of the same compound?
Its IC50 is 391 nM.

And the “MBI 3A4” value (CYP3A4)?
The value was 78%.

What about the IC50 (SAS cells) of the same compound?
Its IC50 is 114 nM.

Which results are given for `CO[C@@H]1C[C@@H]([C@H](C)Oc2cc(-c3ccn(C4COC4)n3)nc(-c3noc4c3CCC[C@@]43CCCc4sc(N)c(C#N)c43)n2)N(C)C1` [II-107]?
solubility at 24 h [1, 2]: > 162 µg/mL; solubility at 24 h [1, 3]: < 1 µg/mL; MBI 3A4 (CYP3A4): 58%; IC50 (NCI-H2122 cells): 5720 nM; IC50 (SAS cells): 7 nM; IC50 (SK-CO-1 cells): 181 nM
